Laboratory results reported in patent US8765786B2, “1-substituted indazole derivative” (Dainippon Sumitomo Pharma Co., Ltd., priority 2012, dated 2014).

biological target: T1, human α7 nAChR (Homo sapiens, UniProt P36544); assay: Evaluation of PAM activity with human α7 nACh receptor stably expressing cells (aequorin luminescence, FDSS7000); assay type: cell-based; settings: result in words; ratio of RLU (Max-Min) to control wells, ACh EC20
T1 construct: expressed in transfected cells; host or cells: GH4C1 cells derived from rat pituitary (ATCC CCL-82.2)
Method in brief: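 PAM activity defined as RLU (Max-Min) of compound wells over control wells, from 465 nm aequorin luminescence tracked 138 s after ACh challenge. Host: GH4C1 (rat pituitary) stably co-expressing human α7 nAChR and aequorin, pre-loaded 4 h with 4 μmol/L luminescent substrate.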

T1 sequence (P36544 23-502): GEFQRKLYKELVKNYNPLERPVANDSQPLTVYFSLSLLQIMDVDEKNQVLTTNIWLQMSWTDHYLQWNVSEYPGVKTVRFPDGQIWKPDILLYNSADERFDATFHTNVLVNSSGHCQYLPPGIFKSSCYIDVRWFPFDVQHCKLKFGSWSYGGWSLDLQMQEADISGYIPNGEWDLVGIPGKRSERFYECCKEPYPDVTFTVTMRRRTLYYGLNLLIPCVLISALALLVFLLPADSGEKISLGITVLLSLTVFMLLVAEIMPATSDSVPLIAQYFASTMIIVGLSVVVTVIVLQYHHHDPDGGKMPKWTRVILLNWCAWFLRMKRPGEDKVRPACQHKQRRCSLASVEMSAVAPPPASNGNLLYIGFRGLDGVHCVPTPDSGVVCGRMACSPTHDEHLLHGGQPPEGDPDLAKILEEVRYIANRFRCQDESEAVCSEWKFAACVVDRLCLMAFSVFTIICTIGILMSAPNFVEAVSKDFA

PAM activity for α7 nAChR	Compound
stronger PAM activity than others	COCC1CCC(NC(=O)N2CCC(n3ncc4cc(C)ccc43)CC2)CC1 (centres unmarked) [Example 220]

same assay, conditions: test compound 10 μmol/L; ACh added at EC20; ratio of RLU (Max-Min) of test wells to control wells

α7PAM (%) @ 10 μmol/L [%]	Compound
266	CCc1ccc2c(c1)c(OC(F)F)nn2C1CCN(C(=O)NC2CCOCC2)CC1 [Example 209]
209	CC1(C)CC(NC(=O)N2CCC(n3ncc4cc(C5CC5)ccc43)CC2)CCO1 (centres unmarked) [Example 210]
800	COCc1c(C)ccc2c1cnn2C1CCN(C(=O)NC2CCC(F)(F)CC2)CC1 [Example 213]
207	COCc1c(C)ccc2c1cnn2C1CCN(C(=O)N[C@H]2CC[C@H](OC)CC2)CC1 [Example 214]
851	COCc1c(C2CC2)ccc2c1cnn2C1CCN(C(=O)NC2CCC(F)(F)CC2)CC1 [Example 215]
271	COCc1c(C2CC2)ccc2c1cnn2C1CCN(C(=O)N[C@H]2CC[C@H](OC)CC2)CC1 [Example 216]
517	O=C(NC1CC(F)(F)C1)N1CCC(n2ncc3cc(C4CC4)ccc32)CC1 [Example 217]
648	Cc1ccc2c(cnn2C2CCN(C(=O)NC3CC(F)(F)C3)CC2)c1 [Example 218]
2160	COCC1CCC(NC(=O)N2CCC(n3ncc4cc(C)ccc43)CC2)CC1 (centres unmarked) [Example 220]
1942	COCC1CCC(NC(=O)N2CCC(n3ncc4cc(C5CC5)ccc43)CC2)CC1 (centres unmarked) [Example 221]
638	Cc1ccc2c(cnn2C2CCN(C(=O)NC3CCC(F)(F)CC3)CC2)c1F [Example 222]
257	CO[C@H]1CC[C@H](NC(=O)N2CCC(n3ncc4c(F)c(C)ccc43)CC2)CC1 [Example 223]
286	O=C(NC1CCC(F)(F)CC1)N1CCC(n2ncc3cc(N4CCCC4)ccc32)CC1 [Example 224]
480	CO[C@H]1CC[C@H](NC(=O)N2CCC(n3ncc4c(C)c(C)ccc43)CC2)CC1 [Example 225]

Continued, molecule first:

Compound	α7PAM (%) @ 10 μmol/L [%]
O=C(NCc1ccc(C(F)(F)F)cc1)N1CCC(n2ncc3cc(C4CC4)ccc32)CC1 [Example 195]	232
O=C(NC1CCC(F)(F)CC1)N1CCC(n2ncc3cc(-c4cccnc4)ccc32)CC1 [Example 196]	229
N#Cc1ccc2c(cnn2C2CCN(C(=O)NC3CCC(F)(F)CC3)CC2)c1 [Example 198]	268
O=C(NC1CCCCC1)N1CCC(n2ncc3cc(C4CC4)ccc32)CC1 [Example 199]	1497
O=C(NC1CCC(F)(F)CC1)N1CCC(n2ncc3c(OC(F)F)cccc32)CC1 [Example 201]	370
COC1CCC(NC(=O)N2CCC(n3ncc4c(OC(F)F)cccc43)CC2)CC1 (centres unmarked) [Example 202]	195
CC(=O)N1CCC(NC(=O)N2CCC(n3ncc4cc(C5CC5)ccc43)CC2)CC1 [Example 203]	271
O=C(Nc1ccc(Cl)nn1)N1CCC(n2ncc3cc(C4CC4)ccc32)CC1 [Example 204]	193
O=C(NC1CCC(OC(F)F)CC1)N1CCC(n2ncc3cc(C4CC4)ccc32)CC1 (centres unmarked) [Example 205]	1187
COc1ccc(C2(NC(=O)N3CCC(n4ncc5cc(C6CC6)ccc54)CC3)CC2)cc1 [Example 206]	196
CCOCc1ccc2c(cnn2C2CCN(C(=O)NC3CCC(F)(F)CC3)CC2)c1 [Example 207]	335
Cc1ccc2c(c1)c(OC(C)C)nn2C1CCN(C(=O)NC2CCOCC2)CC1 [Example 208]	328
[2H]C([2H])([2H])O[C@H]1CC[C@H](NC(=O)N2CCC(n3ncc4cc(OC(F)(F)F)ccc43)CC2)CC1 [Example 226, N-{trans-4-[(^2H3)methoxy]cyclohexyl}-4-[5-(trifluoromethoxy)-1H-indazol-1-yl]piperidine-1-carboxamide]	594

same assay, conditions: test compound 10 μmol/L; ACh added at EC20; ratio of RLU (Max-Min) of test wells to control wells; read-out: α7PAM (%) @ 10 μmol/L

activity at 10 µM [%]	Compound
238	CO[C@H]1CC[C@H](NC(=O)N2CCC(n3ncc4cc(OC(F)(F)F)ccc43)CC2)CC1 [Example 219, N-(trans-4-methoxycyclohexyl)-4-[5-(trifluoromethoxy)-1H-indazol-1-yl]piperidine-1-carboxamide]
